In patent US10060908B2, “Oxidized cardiolipin as a pro-inflammatory factor” (MEDIRISTA BIOTECHNOLOGIES AB, priority 2008, dated 2018):

T1: Annexin A5 (Homo sapiens, UniProt P08758)
T1 construct: purchased Bender MedSystems GmbH, Austria
T1 sequence (P08758 1-320): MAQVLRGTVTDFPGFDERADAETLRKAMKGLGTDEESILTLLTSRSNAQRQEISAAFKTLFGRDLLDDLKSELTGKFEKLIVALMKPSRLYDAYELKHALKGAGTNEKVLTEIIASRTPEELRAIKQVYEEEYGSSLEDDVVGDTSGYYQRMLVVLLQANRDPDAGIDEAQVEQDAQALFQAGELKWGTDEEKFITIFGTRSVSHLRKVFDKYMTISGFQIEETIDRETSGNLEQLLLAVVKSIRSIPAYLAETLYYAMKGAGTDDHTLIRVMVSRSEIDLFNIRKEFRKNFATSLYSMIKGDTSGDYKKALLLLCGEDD


Assays:
CD8-positive T-cells = assay: Activation of CD8-positive T cells (CD69), flow cytometry; type: cell-based; details: human PBMC, 5 ug/ml over night
Procedure: Both CD4 and CD8 positive T cells were studied. Quadrant Q2 represent (%) T-cells positive for CD69 expressing and thus activated T-cells.
Both CD4 and CD8 positive T-cells from the cell line Human PBMC where studied in an incubation setup illustrated in FIG. 11A-F. Both T-cell types where incubated with, buffer (control), oxCL or CL to determine the effect on activation, interpreted by the expression of CD69 surface molecule after stimulation.
In this experiment the attention must be drawn to the quadrant Q2 of the flow cytometry data shown. This quadrant represents the percentage of T-cells in the population tested to be CD69 positive, e.g. activated by the stimuli prior to the data collection.

Annexin A5 = molecular target: T1, Annexin A5; assay: ELISA for Annexin A5 binding to coated cardiolipins; details: lipid 5 ug/ml coated overnight; Annexin A5 0.32-10.24 ug/ml
Procedure: After five washings with PBS, the plates were blocked with 2% PBS-BSA for 2 h at room temperature. Annexin A5 were added and incubated for 1 hour. After washing, bound annexin A5 was detected by incubating subsequently with rabbit anti-human annexin V polyclonal antibodies (Hyphen Biomed, Andresy, France) 1:2000 and polyclonal goat anti-rabbit Immunoglobulins/AP (DakoCytomation) 1:3000 were used. The reaction was developed with alkaline phosphatase substrate (Sigma), and optical density (OD) was read at 405 nm with an ELISA Multiscan Plus spectrophotometer (Molecular Devices Emax, San Francisco). All samples were measured in duplicates and the coefficient of variation was below 15%.

VCAM-1 (CD106) = assay: Adhesion molecule expression by endothelial cells, flow cytometry (VCAM-1); type: cell-based, human; details: HUVECs, 24 h
Procedure: (§1) Pooled human umbilical vascular endothelial cells (HUVECs) at passage 2 were purchased from Cascade Biologics, Inc (Portland, Ore). Cultures were maintained in EGM™ phenol red-free medium (Clonetics, San Diego, Calif.), containing 2% of fetal bovine serum and supplements, at 37° C. under humidified 5% CO2 conditions. All experiments were performed at passage 3 to 5. HUVECs were seeded at 6×10^4 cells/2 mL density on 6-well plates (NUNC Inc, Naperville, Ill.). After allowing endothelial cells overnight for attachment, cells were ready for stimulation.
(§2) After washing with PBS, OxCL and reduced CL (20 ug/ml) were added. For annexin A5 (From Bender MedSystems GmbH, Austria) inhibition study, OxCL was incubated with Annexin A5 (10 ug/ml) for half hour before adding to cells. After 24 hours incubation, detached floating cells were washed away, cell were harvested into Falcon FACS tubes. […] The intercellular adhesion molecule (ICAM-1) CD54 and the vascular cell adhesion molecule (VCAM-1) CD106 were studied with flow cytometry analysis equipped with CellQuest software. For each sample, 10,000 events were analyzed.

ICAM-1 (CD54) = assay: Adhesion molecule expression by endothelial cells, flow cytometry (ICAM-1); type: cell-based, human; details: HUVECs, 24 h
Procedure: as §1, §2

leukotriene B4 = assay: Leukotriene B4 release from neutrophils, EIA; type: cell-based; details: human neutrophils
Procedure: (§3) Human PMNs were isolated from freshly prepared buffy coats (Karolinska Hospital blood bank, Stockholm, Sweden) by dextran sedimentation, hypotonic lysis of erythrocytes and gradient centrifugation on Lymphoprep (Axis-Shield PoC AS, Oslo, Norway). PMNs were suspended at a density of 10×10^6/ml in Dulbecco's PBS (Gibco (Invitrogen), Paisley, UK). PMN purity (>95%) and viability (>98%) was determined using Hemacolor (J. T. Baker, Utrecht, Holland) and Trypan Blue (Sigma Chemical Co.) staining, respectively.
(§4) Analysis of leukotriene B4 Biosynthesis by EIA kit 2×10^6 macrophages were incubated with different agents according to the experimental design, and then quenched with an equal volume methanol. After acidified to pH 3-4, the samples were purified by solid-phase extraction (Supelclean™ LC-18, Supelco) and eluted in methanol. After dried under nitrogen, the samples were re-suspended in EIA buffer. The level of LTB4 was determined with LTB4 EIA kit (Cayman Chemical) by using dilutions within the linear portion of the standard curve.

[1] = system: THP-1 differentiated macrophages; assay: Uptake of Dil-labeled OxLDL in macrophages, flow cytometry; type: cell-based, human; details: competitor 40, 80 ug/ml (LDL 40 ug/ml), Dil-OxLDL 5 ug/ml, 4 hours
Procedure: OxLDL (Industrylane Frederick) were incubated with Dil (Molecular Probes Engene, Oregon, USA) in lipoprotein-deficient serum (Sigma) at 37° C. for 15 hours. Then dialyzed against saline-EDTA buffer for 6 hours.
Uptake of Dil-labelled OxLDL was studied either by Flow cytometry or Fluorescence/confocal microscopy. For microscopy, The macrophages 1×10^6 were grown overnight on culture slides (Nunc, Naperville, N.Y.), For flow cytometry, The macrophages were plated in a 6-well plate at density of 1×10^6 cells/well in DMEM (INVITROGEN, USA) containing 10% FBS overnight. […] Thereafter, the cells from above were washed 4 times with 0.2% BSA/PBS and once with PBS. The cells were harvested in PBS containing 0.1% BSA and 0.01% NaN3. Mean fluorescence intensity was measured by flow cytometry (BD Biosciences, San Jose, Calif., USA). For each sample, fluorescence emission above 550 nm was measured and a minimum of 10.000 cells was analyzed.

neutrophils = assay: Intracellular calcium mobilization, FURA-2AM fluorometer; type: cell-based, human; details: for MFI of calcium mobilization: within 120 seconds
Procedure: as §3
Neutrophils were added into black, 96-well plates with transparent bottom (Corning Costar; 5×10^4 cells/well), and spin down the plate at 120×g for 3 min, afterwards changing the medium containing 4 μM FURA-2AM (Fura-2 acetoxymethyl ester), or buffer as appropriate, and the cells were incubated for 30 min at 37° C. and 5% CO2. Cells were washed four times with 50 μl of a buffer solution (135 mM NaCl, 4.6 mM KCl, 1.2 mM MgCl2, 1.5 mM CaCl2, 11 mM glucose, 11 mM Hepes, pH 7.4) before a final 45 μl volume of buffer was added to each well.
The plates were transferred to a fluorometer (Fluostar™, BMG Technologies), and 50 μl of different agonists according to experimental designs or buffer solution as control were injected into individual wells and the cells were monitored for the next 120 seconds. Control wells containing cells that had not been exposed to FURA-2AM were used to subtract background auto-fluorescence. The results are given as the ratio of mean fluorescence intensity (MFI) between 340 and 380 nm, and normalized by control.

IL-6 = IL-6 production by HUVEC, protein multiplex immunoassay; type: cell-based, human; details: HUVECs, 24 h; for IL-6 levels of the substance alone compared with the control group: 20 ug/ml
Procedure: HUVEC cells from above were seeded at density 10^6/2 ml into 6 well plates. Allowing cells attachment for 24 hours, OxCL (20 ug/ml) with or without Annexin A5 (20 ug/ml) and reduced CL were added and incubated for 24 hours. Cell supernatant were collected and IL-6 and IL-8 production were measured with protein multiplex immunoassay kits (from Bioscource, USA) and Bio-PIei™ system (BioRad, USA).

LTB4 = assay: Leukotriene B4 biosynthesis in macrophages, EIA; type: cell-based; details: human monocyte-derived macrophages
Procedure: Human mononuclear cells were isolated from freshly prepared buffy coats (Karolinska Hospital blood bank, Stockholm, Sweden) by gradient centrifugation on Ficoll-Paque (Amersham Biosciences, Uppsala, Sweden). The mononuclear cells were cultured at a density of 5×10^6/ml in RPMI-1640 medium with 25 mM Hepes, 1% L-glutamine, 1% penicillin-streptomycin and 10% FBS. After 7 days, there are proximate 2×10^6 macrophages per well.
as §4

[2] = oxCL 20 ug/ml preincubated with Annexin A5 10 ug/ml

binding to Annexin A5 (Annexin A5) | Molecule | CD69 expression (activation) of CD8-positive T cells (CD8-positive T-cells) | VCAM-1 expression (VCAM-1 (CD106); 20 ug/ml) | ICAM-1 expression (ICAM-1 (CD54); 20 ug/ml) | leukotriene B4 release (leukotriene B4) | competition of dil-oxLDL uptake (in words) [1] | MFI of calcium mobilization (neutrophils) | IL-6 levels of the substance alone compared with the control group (IL-6) | inhibition of oxCL-induced VCAM-1 (CD106) expression (VCAM-1 (CD106); [2]) | inhibition of OxCL-induced LTB4 production (LTB4) | inhibition of oxCL-induced ICAM-1 (CD54) expression (ICAM-1 (CD54); [2]) | inhibition of oxCL-induced calcium mobilization (neutrophils; oxCL incubated with Annexin A5) | IL-6 level, oxCL with Annexin A5 (IL-6; oxCL 20 ug/ml with Annexin A5 20 ug/ml)
can bind | Cardiolipin [CL] | not | did not show the same effect | did not show the same effect | did not show the similar reaction | did not show the competition effetcts | did not increase | could not significantly increase | – | – | – | – | –
could not bind | Hydro heart cardiolipin [reduced CL] | – | – | – | – | not | – | – | – | – | – | – | –
– | Annexin A5: member of the Annexin superfamily with anti-thrombotic properties; from Bender MedSystems (protein, UniProt P08758 2-320, looked up) Annexin A5: AQVLRGTVTDFPGFDERADAETLRKAMKGLGTDEESILTLLTSRSNAQRQEISAAFKTLFGRDLLDDLKSELTGKFEKLIVALMKPSRLYDAYELKHALKGAGTNEKVLTEIIASRTPEELRAIKQVYEEEYGSSLEDDVVGDTSGYYQRMLVVLLQANRDPDAGIDEAQVEQDAQALFQAGELKWGTDEEKFITIFGTRSVSHLRKVFDKYMTISGFQIEETIDRETSGNLEQLLLAVVKSIRSIPAYLAETLYYAMKGAGTDDHTLIRVMVSRSEIDLFNIRKEFRKNFATSLYSMIKGDTSGDYKKALLLLCGEDD | – | – | – | – | – | did not increase | could not significantly increase | significantly inhibited | greatly inhibited | significantly inhibited | greatly inhibited | 276.4 ± 28.62 pg/mL
